Reference: article PMC11818712, “Unveiling the Multitarget Potential of a Rare Caffeoyl Ester from Artemisia capillaris for Diabetes Mellitus: An Integrated In Vitro and In Silico Study” (International Journal of Molecular Sciences, 2025)

Legend:
[1] = DPPH radical scavenging activity assay; details: free radical scavenging
Experimental: The DPPH radical scavenging activity was evaluated using methods outlined in Blois (1958), with slight modifications. Different concentrations in 160 μL of MeOH (final concentration = 320 μg/mL for the extracts, fractions, and the compounds) were added to 40 μL of a DPPH:MeOH solution (1.5 × 10^−4 M). After gently mixing the sample and letting it stand at room temperature for 30 min, the optical density was measured at 520 nm using a VERSAmax microplate spectrophotometer (Molecular Devices). […] We used L-ascorbic acid as the positive control. The IC50 values presented here are expressed as the mean ± the standard error of the mean of triplicate experiments.

[2] = target: human recombinant aldose reductase (HRAR) (Homo sapiens, UniProt P15121); assay: Human recombinant aldose reductase (HRAR)-inhibitory activity assay (DL-glyceraldehyde substrate); format: biochemical
Experimental: The reaction mixture was prepared as follows: we combined 100 µL of 0.15 mM nicotinamide adenine dinucleotide phosphate (NADPH), 100 µL of 10mM DL-glyceraldehyde as a substrate, and 5 µL of HRAR with the sample (final concentration of 100 µM for the test compound, dissolved in 100% DMSO) in a total volume of 1.0 mL of 100 mM sodium phosphate buffer (pH 6.2). The AR activity was determined by measuring the decrease in nicotinamide adenine dinucleotide phosphate (NADPH) absorption at 340 nm over a period of 1 min using an Ultrospec-2100pro UV–visible spectrophotometer with Microsoft™ Excel, control by SWIFT II software (Amersham Biosciences, Piscataway, NJ, USA). […] The inhibition percentage (%) was calculated as described for the assay of Renilla luciferase, except that the DA sample/min represented a reduction in absorbance for 1 min with the test samples and substrate. The HRAR-inhibitory activity of each sample was expressed in terms of the IC50 value (µM), which was calculated from the log–dose inhibition curve.

[3] = target: T1, PTP1B (Homo sapiens, UniProt P18031); assay: PTP1B-inhibitory activity assay (p-NPP substrate); format: biochemical
T1 sequence (P18031 1-435): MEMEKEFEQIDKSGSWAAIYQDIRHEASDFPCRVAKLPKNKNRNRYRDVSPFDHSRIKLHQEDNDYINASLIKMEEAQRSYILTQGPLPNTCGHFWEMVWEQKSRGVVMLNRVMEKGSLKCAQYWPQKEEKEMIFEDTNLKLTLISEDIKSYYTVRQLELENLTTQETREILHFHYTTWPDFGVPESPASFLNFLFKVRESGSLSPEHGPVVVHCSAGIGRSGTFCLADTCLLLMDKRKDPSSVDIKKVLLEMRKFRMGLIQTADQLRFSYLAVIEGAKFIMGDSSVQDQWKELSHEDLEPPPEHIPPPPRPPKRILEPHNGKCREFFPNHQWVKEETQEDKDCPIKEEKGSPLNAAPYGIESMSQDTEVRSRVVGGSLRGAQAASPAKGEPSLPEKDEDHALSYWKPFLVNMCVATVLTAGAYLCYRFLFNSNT
Experimental: Following incubation at 37 °C for 30 min, the reaction was terminated with the addition of 10 M NaOH.

[4] = target: α-glucosidase (Saccharomyces cerevisiae, UniProt P53341); format: biochemical; details: at the tested concentration
Experimental: Enzyme inhibition studies were carried out spectrophotometrically in a 96-well microplate reader using a procedure reported by Li. A 60 µL reaction mixture, containing 20 µL of 100 mM phosphate buffer (pH 6.8), 20 µL of 2.5 mM p-NPG in the buffer, and 20 µL of PPT-14 dissolved in 10% DMSO, was added to each well. The enzymatic reaction was initiated by the addition of 20 µL of 10 mM phosphate buffer (pH 6.8), containing 0.2 U/mL α-glucosidase to each well. The plate was incubated at 37 °C for 15 min, and then 80 µL of 0.2 mol/L sodium carbonate solution was added to stop the reaction. Immediately after that, the absorbance was recorded at 405 nm using a VERSA max (Molecular Devices, Sunnyvale, CA, USA) microplate reader. Control samples contained the same reaction mixture, except that an equivalent volume of phosphate buffer was added instead of the sample solution. […] The inhibition (%) was calculated as (Ac − As)/Ac × 100%, where Ac was the absorbance of the control, and As was the absorbance of the sample.

Chain of α-glucosidase (P53341 whole entry): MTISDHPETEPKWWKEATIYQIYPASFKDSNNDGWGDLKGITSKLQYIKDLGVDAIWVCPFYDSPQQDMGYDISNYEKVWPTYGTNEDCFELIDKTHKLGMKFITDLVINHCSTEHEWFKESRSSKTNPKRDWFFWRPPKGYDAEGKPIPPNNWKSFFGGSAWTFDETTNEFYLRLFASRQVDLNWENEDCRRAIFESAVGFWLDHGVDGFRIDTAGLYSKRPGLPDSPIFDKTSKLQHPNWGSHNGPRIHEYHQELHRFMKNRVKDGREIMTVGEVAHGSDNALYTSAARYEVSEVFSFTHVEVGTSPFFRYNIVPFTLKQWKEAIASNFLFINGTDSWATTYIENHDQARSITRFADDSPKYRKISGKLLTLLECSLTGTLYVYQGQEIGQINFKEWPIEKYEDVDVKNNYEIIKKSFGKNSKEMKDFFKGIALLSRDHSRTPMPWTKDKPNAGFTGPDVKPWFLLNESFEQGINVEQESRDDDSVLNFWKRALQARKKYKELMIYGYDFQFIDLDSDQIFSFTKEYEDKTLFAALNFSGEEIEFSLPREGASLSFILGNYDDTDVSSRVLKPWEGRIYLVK

Compound	DPPH IC50 [1] [µg/mL]	IC50 [1] [µM]	IC50 [2] [µM]	IC50 [3] [µM]	α-glucosidase inhibitory activity [4]
O=C1O[C@H]([C@@H](O)CO)C(O)=C1O [Ascorbic acid, reference compound]	5.6	31.8	–	–	–
C[C@@](O)(C(=O)O)[C@H](O)COC(=O)/C=C/c1ccc(O)c(O)c1 [PPT-14, 4-O-caffeoyl-2-C-methyl-D-threonic acid]	4.5	14.5	19.5 ± 0.51	64.92 ± 0.34	did not exhibit any α-glucosidase inhibitory activity
